Columns and labels:
[1] = cited from earlier work
[2] = Sorafenib plasma pharmacokinetics; format: in vivo, human; conditions: for sorafenib exposure (AUC0–24) on day 28, patients on vs not on EIAEDs: day 28 of cycle 1, P = 0.0431; for AUC(0-t): AUC0–8 (mean)
[3] = Phase 2 trial toxicity graded according to NCI CTC version 2
[4] = Temozolomide exposure, continuous daily dosing compared to standard 5-day dosing; format: in vivo, human; conditions: 50 mg/m2/day continuous compared to 150–200 mg/m2/day for 5 days each month

sorafenib exposure on day 1, patients on vs not on EIAEDs ([2]; day 1 of cycle 1)	AUC(0-t) ([2]; human, plasma, oral, 400 mg, patients not on EIAEDs, day 1, n = 5 per group) [ng·h/mL]	AUC(0-t) ([2]; human, plasma, oral, 400 mg, patients not on EIAEDs, day 28, n = 5 per group) [ng·h/mL]	AUC ([2]; human, plasma, oral, 400 mg, AUC(24) (mean), Non-EIAED patients, day 28 of cycle 1, plasma) [ng·h/mL]	Cmax ([2]; human, plasma, oral, 400 mg, C max (mean), Non-EIAED patients, day 28 of cycle 1, plasma) [ng/mL]	difference in mean AUC0–8, day 28 vs day 1 ([2]; patients not on EIAEDs) [fold]	sorafenib AUC0–24 day 28 compared to day 1 ([2]; patients not on EIAEDs, P = 0.0117)	sorafenib AUC0–24 day 28 compared to day 1 ([2]; patients on EIAEDs, P = 0.7266)	greater temozolomide exposure with continuous daily dosing [4]	SMILES	reduction in sorafenib exposure ([1]; co-administration of rifampin, a CYP3A4 and UGT 1A9 inducer) [%]	effect of ketoconazole co-administration on sorafenib ([1]; ketoconazole (CYP3A inhibitor) with low-dose sorafenib 50 mg/day)	sorafenib exposures, patients on vs not on EIAEDs ([1]; phase I dose escalation study, malignant glioma patients, day one of cycle one)	increase of sorafenib exposures over seven days (to steady-state) ([1]; prior pharmacokinetic studies)	sorafenib exposure (AUC0–24) on day 28, patients on vs not on EIAEDs [2]	sorafenib exposure (AUC0–24) on day 28, patients on vs not on EIAEDs ([2]; listed as sorafenib)	Amylase/lipase, dose modification or discontinuation of sorafenib ([3]; n = 32)	Palmer-Plantar Erythrodysesthesia, dose modification or discontinuation of sorafenib ([3]; n = 32)	patients requiring dose modification or discontinuation of daily temozolomide ([3]; 32 patients)
comparable	11100	52100	129000	8120	~5	significantly higher	did not differ significantly		CNC(=O)c1cc(Oc2ccc(NC(=O)Nc3ccc(Cl)c(C(F)(F)F)c3)cc2)ccn1 [Sorafenib]	37	did not result in unexpected adverse events or evidence of altered sorafenib pharmacokinetics	comparable	3–4 fold	significantly lower on day 28 for patients on EIAEDs	significantly higher on day 28 for patients not on EIAEDs	4 (13) number of patients (percent of	3 (9) number of patients (percent of	
								1.4–1.9 fold	Cn1nnc2c(C(N)=O)ncn2c1=O [temozolomide, Temozolomide]									none of the patients

From publication PMC3102498 (Journal of neuro-oncology, 2010)
